Like-named read-outs stand apart in the source and are kept apart here.
How the values were obtained:
Mtb Erdman = experiment: microbe, parasite or virus in culture; conditions: Mycobacterium tuberculosis, 240 h, read-out: reduction of Mtb viability in the presence of 5 μM INH relative to cultures not treated with INH
TAG accumulation = type: cell-based, Mycobacterium tuberculosis
Mtb CDC1551 = experiment: microbe, parasite or virus in culture; conditions: Mycobacterium tuberculosis, CDC1551, read-out: reduction of viability relative to DMSO treated control
DosT = DosT (Mycobacterium tuberculosis, UniProt P9WGK1); type: biochemical
Chain of DosT (P9WGK1 whole entry): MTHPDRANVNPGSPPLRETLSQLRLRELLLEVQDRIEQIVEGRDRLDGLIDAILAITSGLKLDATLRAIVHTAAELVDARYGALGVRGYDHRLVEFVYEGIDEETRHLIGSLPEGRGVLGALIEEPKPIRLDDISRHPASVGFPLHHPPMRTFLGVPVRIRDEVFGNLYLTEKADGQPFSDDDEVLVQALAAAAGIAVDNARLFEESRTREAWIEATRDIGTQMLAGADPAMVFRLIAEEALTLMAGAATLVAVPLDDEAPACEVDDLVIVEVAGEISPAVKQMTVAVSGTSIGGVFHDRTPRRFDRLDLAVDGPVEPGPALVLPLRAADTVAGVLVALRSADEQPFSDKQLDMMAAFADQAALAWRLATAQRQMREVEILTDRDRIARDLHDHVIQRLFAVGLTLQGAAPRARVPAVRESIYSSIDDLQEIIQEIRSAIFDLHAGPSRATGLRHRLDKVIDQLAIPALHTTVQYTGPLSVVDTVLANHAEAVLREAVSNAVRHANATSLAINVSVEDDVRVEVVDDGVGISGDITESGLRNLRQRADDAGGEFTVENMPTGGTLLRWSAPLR

SMILES	inhibition at 40 µM (Mtb Erdman) [%]	reduction in TAG accumulation (TAG accumulation; CDC1551, 40 μM, 6 days) [%]	inhibition at 10 µM (Mtb CDC1551) [%]	concentration at which artemisinin modulates DosT heme / inhibits DosT (DosT; DTN-reduced DosT) [µM]	effect on redox status of DosT heme (DosT; UV-visible spectra)	reduction in TAG accumulation (TAG accumulation) [%]	effect on redox status of DosT heme (DosT)
C[C@@H]1CC[C@H]2[C@@H](C)C(=O)O[C@@H]3O[C@]4(C)CC[C@@H]1[C@]32OO4 [HC101A, artemisinin, reference compound]	~30	74	~50	50	–	–	–
C[C@@H]1CC(C)(C)C[C@]2(C1)NC(=O)NC2=O (racemic) [HC102A, 7,7,9-trimethyl-1,3-diazaspiro[4.5]decane-2,4-dione]	~30	67	~50	–	no impact on the redox status	–	–
O=C(Nc1cccc(O)c1)c1cccc(NC(=O)c2cccs2)c1 [HC103A, N-[3-[(3 hydroxyphenyl)carbamoyl]phenyl]thiophene-2-carboxamide]	~30	–	~50	–	–	56	no impact on the redox status
